Measured values: article PMC6776155 (Breeding Science, 2019)

Tested on: TrGDH (His6-TF-TrGDH)
Test: NADPH oxidation at […] nm, Lineweaver-Burk
Format: biochemical, Trichurus sp.
Details: amination; 2-OG 1-10 mM, 100 μM NADPH, NH4Cl co-substrate, Tris pH 8.0, 25 °C

## O=C(O)CCC(=O)C(=O)O [2-oxoglutarate]
  Km: 1570 ± 190 µM
